ChEMBL document CHEMBL5356969, “Functional evaluation of an electrophilic focused library to identify a covalent inhibitor against intrinsically disordered circadian clock transcription factors” (Bioorg Med Chem Lett, 2024)
Activity calls are given as the source filed them. The calls are words filed in the database; no cut-off is given here.

What was measured:
[1] = Thiol reactivity of compound assessed as second order rate constant at 200 uM in presence of TCEP by Ellman's method; assay type: ADME
[2] = Inhibition of N-terminal (His)6/thioredoxin-tagged recombinant human BMAL1/CLOCK heterodimer expressed in Escherichia coli interaction with 5'-FAM-labeled Per2 E-box DNA (unknown origin) assessed as reduction in fluorescence intensity at 500 uM incubated for 40 mins by FP assay
[3] = Inhibition of N-terminal (His)6/thioredoxin-tagged recombinant human BMAL1/CLOCK heterodimer expressed in Escherichia coli interaction with FAM-labeled E-box DNA (unknown origin) assessed as reduction in fluorescence intensity at 50 uM pretreated with iodoacetamide followed by compound treatment
[4] = Inhibition of N-terminal (His)6/thioredoxin-tagged recombinant human BMAL1/CLOCK heterodimer expressed in Escherichia coli interaction with 5'-FAM-labeled Per2 E-box DNA (unknown origin) assessed as reduction in fluorescence intensity at 500 uM incubated for 40 mins by FP assay relative to control
[5] = Inhibition of N-terminal (His)6/thioredoxin-tagged recombinant human BMAL1/CLOCK heterodimer expressed in Escherichia coli interaction with 5'-FAM-labeled Per2 E-box DNA (unknown origin) assessed as reduction in fluorescence intensity incubated for 40 mins by FP assay
[6] = Inhibition of N-terminal (His)6/thioredoxin-tagged recombinant human BMAL1/CLOCK heterodimer expressed in Escherichia coli interaction with FAM-labeled E-box DNA (unknown origin) assessed as reduction in fluorescence intensity upto 1000 uM

Row | SMILES | K [1] | inhibition [2] | also measured
1 | O=C(CCl)Nc1cccc(C(F)(F)F)c1 | 3.18 10^-5/M/s |  | 
2 | O=C(CCl)Nc1cccc2ccccc12 |  | inactive | 
3 | CC(C)NC(=O)CCl |  | inactive | 
4 | O=C(CCl)NC1CCCCC1 |  | inactive | 
5 | O=C1C=CC(=O)c2nccnc21 |  |  | inhibition [3]: inactive
6 | O=C(CCl)Nc1cc(C(F)(F)F)cc(C(F)(F)F)c1 | 4.61 10^-5/M/s |  | inhibition [4]: 60%; IC50 [5]: 150 µM; inhibition [3]: inactive; inhibition [6]: Active
7 | C=CC(=O)NCc1ccc(Cl)cc1 |  | inactive | 
8 | NC(=O)CI [IODOACETAMIDE] | 15.9 10^-5/M/s |  | inhibition [6]: inactive
9 | C=CC(=O)Nc1cccc2ccccc12 |  | inactive | 
10 | C=CC(=O)Nc1ccccc1 |  | inactive | 
11 | C=CC(=O)NC(C)C |  | inactive | 
12 | O=C(CCl)Nc1ccccc1 |  | inactive | 
13 | O=C(CCl)NCc1ccc(Cl)cc1 |  | inactive | 
14 | O=C(CCl)Nc1ccc(C(F)(F)F)cc1 | 4.47 10^-5/M/s |  | inhibition [6]: inactive
15 | O=C(CCl)NCc1ccccc1Cl |  | inactive | 
16 | C=CC(=O)NCc1ccccc1Cl |  | inactive | 
17 | C=CC(=O)Nc1cc(C(F)(F)F)cc(C(F)(F)F)c1 | 0.38 10^-5/M/s |  | IC50 [5]: 500 µM
18 | O=C(CCl)Nc1ccccc1C(F)(F)F | 0.63 10^-5/M/s |  | 
19 | C=CC(=O)NC1CCCCC1 |  | inactive | 
